One experiment deals with T1, CFTR ΔF508 mutant (Homo sapiens, UniProt P13569, DEL508-508).
T1 construct: expressed in transfected cells; host or cells: CFBE41o- cells, adenoviral transduction
The experiment in a line: YFP-halide influx assay for the CFTR-ΔF508 mutation (CFBE41o- cells). It counts as cell-based. The settings on record: forskolin 10.67 μM; for EC50: from (1−F/F0) vs concentration plot. An excerpt:
The YFP halide influx assay measured the functionality of the cystic fibrosis Transmembrane Conductance regulator (CFTR) channels in the cystic fibrosis bronchial epithelium cell line CFBE41o-. The assay was used to evaluate the capacity of compounds to increase the open probability of existing CFTR channels in the membrane. It makes use of the observation that the yellow fluorescent protein (YFP) variant YFP H148Q, I152L, F47L has its fluorescence substantially quenched by halide ions like Cl^− and I^− (Galietta, L. J. V., Haggie, P. M., Verkman, A. S., 2001. Green fluorescent protein-based halide indicators with improved chloride and iodide affinities. FEBS Lett. 499, 220-224. doi:10.1016/S0014-5793(01)02561-3; Nagai, T., Ibata, K., Park, E. S., Kubota, M., Mikoshiba, K., Miyawaki, A., 2002. A variant of yellow fluorescent protein with fast and efficient maturation for cell-biological applications. Nat. Biotechnol. 20, 87-90. doi: 10.1038/nbt0102-87).
For this purpose, CFBE41o-cells were seeded in 384 well plates (3000 CFBE cells/well). One day after seeding, the CFBE cells were transduced with adenoviral vectors that direct the expression of the CFTR ΔF508 mutant and of the YFP reporter. Cells were incubated at 27° C., 5% CO2 for 24 hours so as to allow for the proper folding and migration to the membrane of the CFTR channel or treated with a CFTR modulator during 24 hours at 37° C.
The I-induced quenching of fluorescence was recorded on an immediately after injection of iodide for 2 minutes on an FDSS/μCell (Hamamatsu). The capacity of a compound to increase the channel opening was directly correlated with the decrease in fluorescence, and was expressed as (1−(fluorescence after 36 seconds (F)/fluorescence before injection (F0))) and an EC50 was derived from a (1−F/F0) vs compound concentration plot.

A further experiment has as its target T2, CFTR G551D mutant (Homo sapiens, UniProt P13569, G551D).
T2 construct: expressed in transfected cells; host or cells: HEK293 cells, reverse transfection with plasmids
The experiment in a line: YFP-halide influx assay for the CFTR-G551D mutation (HEK293 cells). It counts as cell-based. The settings on record: forskolin 10.67 μM. An excerpt:
The YFP halide influx assay measured the functionality of the cystic fibrosis Transmembrane Conductance regulator (CFTR) channels. The assay was used to evaluate the capacity of compounds to increase the channel opening of existing mutant CFTR channels in the membrane. It makes use of the observation that the yellow fluorescent protein (YFP) variant YFP H148Q, I152L, F47L has its fluorescence substantially quenched by halide ions like Cl^− and I^− (Galietta, L. J. V., Haggie, P. M., Verkman, A. S., 2001. Green fluorescent protein-based halide indicators with improved chloride and iodide affinities. FEBS Lett. 499, 220-224. doi:10.1016/S0014-5793(01)02561-3).
For this purpose, HEK293-cells were seeded in 96 well plates. During seeding, the cells were reverse-transfected with plasmid vectors that direct the expression of the CFTR G551D mutant and of the YFP reporter. Cells were incubated at 37° C., 5% CO2 for 24 hours so as to allow for sufficient expression of the CFTR protein.
The I^−-induced quenching of fluorescence was recorded immediately after injection of I^− for 7 seconds. The capacity of a compound to increase the channel opening was directly correlated with the decrease in fluorescence, and was expressed as (1−(fluorescence after 7 seconds (F)/fluorescence before injection (F0))) and an EC50 was derived from a (1−F/F0) vs compound concentration plot.

Experimental findings from patent publication US10047051B2, “Substituted pyridines and method of use” (AbbVie S.á{acute over (.)}r.l., priority 2015, dated 2018) are described below.

The EC50 is the concentration at which the effect is half-maximal.

T2 sequence (P13569 whole entry G551D): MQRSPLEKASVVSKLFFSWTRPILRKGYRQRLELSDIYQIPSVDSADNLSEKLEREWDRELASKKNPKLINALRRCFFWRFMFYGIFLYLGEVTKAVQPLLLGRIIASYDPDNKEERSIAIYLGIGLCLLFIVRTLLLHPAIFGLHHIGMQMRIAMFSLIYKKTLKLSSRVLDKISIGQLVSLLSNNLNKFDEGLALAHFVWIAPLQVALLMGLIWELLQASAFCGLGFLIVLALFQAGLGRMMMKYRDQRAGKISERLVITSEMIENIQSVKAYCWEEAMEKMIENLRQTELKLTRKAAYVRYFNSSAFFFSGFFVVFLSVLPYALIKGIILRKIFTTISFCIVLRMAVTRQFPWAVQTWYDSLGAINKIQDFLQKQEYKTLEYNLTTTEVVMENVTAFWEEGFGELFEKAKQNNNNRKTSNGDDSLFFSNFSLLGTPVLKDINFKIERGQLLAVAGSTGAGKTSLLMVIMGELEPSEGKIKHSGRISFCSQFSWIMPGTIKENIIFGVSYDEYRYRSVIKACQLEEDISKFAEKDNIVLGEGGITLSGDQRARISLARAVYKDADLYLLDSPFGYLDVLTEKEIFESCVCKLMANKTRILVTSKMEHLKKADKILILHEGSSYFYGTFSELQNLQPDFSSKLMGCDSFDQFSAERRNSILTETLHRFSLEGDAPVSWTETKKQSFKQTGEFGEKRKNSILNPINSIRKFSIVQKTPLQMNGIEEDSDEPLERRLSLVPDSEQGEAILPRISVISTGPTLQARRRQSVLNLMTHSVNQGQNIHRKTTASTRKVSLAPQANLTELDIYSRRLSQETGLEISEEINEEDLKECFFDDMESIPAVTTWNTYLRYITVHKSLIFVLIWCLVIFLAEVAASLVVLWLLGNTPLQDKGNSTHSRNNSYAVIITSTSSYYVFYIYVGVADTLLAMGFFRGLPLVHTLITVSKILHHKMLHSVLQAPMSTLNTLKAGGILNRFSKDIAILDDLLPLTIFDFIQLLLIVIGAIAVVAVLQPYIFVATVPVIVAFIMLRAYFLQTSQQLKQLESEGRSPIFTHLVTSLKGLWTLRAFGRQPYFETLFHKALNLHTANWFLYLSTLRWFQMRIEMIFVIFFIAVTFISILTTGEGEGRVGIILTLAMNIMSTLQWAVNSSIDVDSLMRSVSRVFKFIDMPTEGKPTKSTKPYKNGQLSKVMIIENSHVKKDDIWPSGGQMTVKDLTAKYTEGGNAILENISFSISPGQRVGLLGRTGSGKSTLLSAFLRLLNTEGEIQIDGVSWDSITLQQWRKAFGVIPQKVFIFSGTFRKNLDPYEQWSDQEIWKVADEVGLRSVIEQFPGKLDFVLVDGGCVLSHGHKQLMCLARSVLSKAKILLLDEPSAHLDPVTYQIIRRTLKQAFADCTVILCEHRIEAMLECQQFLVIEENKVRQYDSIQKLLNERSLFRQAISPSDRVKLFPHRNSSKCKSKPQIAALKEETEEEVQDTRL
T1 sequence (P13569 with tags, fused parts or gaps DEL508-508): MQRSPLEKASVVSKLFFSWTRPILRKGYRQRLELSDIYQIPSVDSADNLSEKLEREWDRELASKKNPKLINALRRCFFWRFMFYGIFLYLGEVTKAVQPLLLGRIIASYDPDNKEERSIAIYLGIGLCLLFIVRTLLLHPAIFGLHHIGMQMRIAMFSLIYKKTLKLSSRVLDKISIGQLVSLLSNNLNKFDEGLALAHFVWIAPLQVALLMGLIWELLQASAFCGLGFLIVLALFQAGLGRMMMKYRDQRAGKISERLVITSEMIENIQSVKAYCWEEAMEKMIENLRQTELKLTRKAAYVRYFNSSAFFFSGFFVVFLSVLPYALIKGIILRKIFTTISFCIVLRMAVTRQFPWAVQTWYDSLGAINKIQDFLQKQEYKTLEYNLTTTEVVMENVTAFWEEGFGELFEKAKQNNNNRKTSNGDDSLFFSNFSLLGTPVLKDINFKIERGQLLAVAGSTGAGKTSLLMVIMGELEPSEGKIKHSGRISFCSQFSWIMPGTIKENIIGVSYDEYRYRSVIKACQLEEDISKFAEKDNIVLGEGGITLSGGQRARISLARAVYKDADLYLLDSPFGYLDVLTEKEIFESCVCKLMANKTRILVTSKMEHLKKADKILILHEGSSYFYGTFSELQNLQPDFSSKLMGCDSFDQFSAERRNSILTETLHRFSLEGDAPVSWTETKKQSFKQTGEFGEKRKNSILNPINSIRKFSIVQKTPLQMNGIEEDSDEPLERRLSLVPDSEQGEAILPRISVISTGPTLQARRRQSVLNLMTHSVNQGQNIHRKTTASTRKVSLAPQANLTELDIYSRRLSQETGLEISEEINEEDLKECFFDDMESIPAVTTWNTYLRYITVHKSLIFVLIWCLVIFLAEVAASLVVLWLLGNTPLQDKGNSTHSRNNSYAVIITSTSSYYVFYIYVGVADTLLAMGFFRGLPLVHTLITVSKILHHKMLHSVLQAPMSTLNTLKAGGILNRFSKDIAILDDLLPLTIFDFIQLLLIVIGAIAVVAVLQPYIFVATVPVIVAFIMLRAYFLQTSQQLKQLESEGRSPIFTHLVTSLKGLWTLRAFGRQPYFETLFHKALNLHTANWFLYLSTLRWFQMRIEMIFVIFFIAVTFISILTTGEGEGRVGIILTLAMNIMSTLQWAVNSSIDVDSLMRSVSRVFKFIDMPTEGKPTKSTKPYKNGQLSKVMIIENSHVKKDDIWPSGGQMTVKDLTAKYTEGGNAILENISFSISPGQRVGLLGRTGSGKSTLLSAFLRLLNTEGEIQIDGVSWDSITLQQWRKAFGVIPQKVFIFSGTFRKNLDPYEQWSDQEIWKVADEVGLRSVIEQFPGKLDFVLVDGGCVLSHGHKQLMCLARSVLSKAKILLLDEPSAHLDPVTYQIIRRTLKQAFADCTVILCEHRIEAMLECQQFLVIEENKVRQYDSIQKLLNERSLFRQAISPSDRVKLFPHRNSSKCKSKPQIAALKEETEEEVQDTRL

Consider `CC1(C)CN(C(=O)c2ncc(S(=O)(=O)c3ccc(OC(F)(F)F)cc3F)cc2N)C1` [Compound 134, (3-amino-5-{[2-fluoro-4-(trifluoromethoxy)phenyl]sulfonyl}pyridin-2-yl)(3,3-dimethylazetidin-1-yl)methanone], for which, on CFTR ΔF508 mutant, the “% Activation” value is given as 101.6% and it took 43.5 nM to reach a half-maximal effect (EC50). For the same molecule, at CFTR G551D mutant, the “% Activation” value is listed as 76.8% and it took 1130 nM to reach a half-maximal effect (EC50).

Consider `CC(C)NC(=O)CNC(=O)c1ncc(S(=O)(=O)N2CCC[C@@H]2C)cc1N` [Compound 270, 3-amino-5-{[(2S)-2-methylpyrrolidin-1-yl]sulfonyl}-N-[2-oxo-2-(propan-2-ylamino)ethyl]pyridine-2-carboxamide], for which, on CFTR ΔF508 mutant, the “% Activation” value is reported as 100.0% and the EC50 worked out at 143 nM. For the same molecule, at CFTR G551D mutant, the “% Activation” value came out at 23.8% and the EC50 was greater than 10000 nM.

On to `Nc1cc(S(=O)(=O)c2ccc(OC(F)(F)F)cc2)cnc1C(=O)NCC(O)C1CCOC1` (centres unmarked) [Compound 73, 3-amino-N-[2-hydroxy-2-(tetrahydrofuran-3-yl)ethyl]-5-{[4-(trifluoromethoxy)phenyl]sulfonyl}pyridine-2-carboxamide], for which, at CFTR ΔF508 mutant, the “% Activation” value was found to be 102.0% and the midpoint of the response, the EC50, lay at 81.4 nM. At CFTR G551D mutant, the “% Activation” value turned out to be 61.0% and the 50% effective concentration (EC50) is greater than 3330 nM.

In the case of `Nc1cc(S(=O)(=O)c2ccc(OC(F)(F)F)cc2)cnc1C(=O)N1CC[C@@H](F)C1` [Compound 204, (3-amino-5-{[4-(trifluoromethoxy)phenyl]sulfonyl}pyridin-2-yl)[(3R)-3-fluoropyrrolidin-1-yl]methanone], the results for the “% Activation” value on CFTR ΔF508 mutant and on CFTR G551D mutant were 92.5% and 73.9%, respectively. Moreover, the half-maximal effective concentration (EC50) at CFTR ΔF508 mutant is 177 nM; on CFTR G551D mutant, greater than 3330 nM.

As to `Nc1cc(S(=O)(=O)c2ccc(OC(F)(F)F)cc2)cnc1C(=O)NCC(O)CF` (centres unmarked) [Compound 273, 3-amino-N-(3-fluoro-2-hydroxypropyl)-5-{[4-(trifluoromethoxy)phenyl]sulfonyl}pyridine-2-carboxamide], on CFTR ΔF508 mutant, the “% Activation” value amounted to 112.0% and the response was half-maximal at 10.3 nM (EC50). For the same molecule, at CFTR G551D mutant, the “% Activation” value was determined as 39.5% and the half-maximal effective concentration (EC50) was found to be 1010 nM.

For the molecule `Nc1cc(S(=O)(=O)c2ccc(F)cc2)c(Br)nc1C(=O)NC[C@@H](O)C(F)(F)F` [Compound 250, 3-amino-6-bromo-5-[(4-fluorophenyl)sulfonyl]-N-[(2R)-3,3,3-trifluoro-2-hydroxypropyl]pyridine-2-carboxamide], the “% Activation” value at CFTR ΔF508 mutant amounted to 111.5%; at CFTR G551D mutant it was 90.4%. Further, the EC50 is 1 nM on CFTR ΔF508 mutant and 453 nM on CFTR G551D mutant.

For the molecule `Nc1cc(S(=O)(=O)c2ccc(C(F)(F)F)cc2)cnc1C(=O)NC[C@@H]1CCOC1` [Compound 102, 3-amino-N-[(3S)-tetrahydrofuran-3-ylmethyl]-5-{[4-(trifluoromethyl)phenyl]sulfonyl}pyridine-2-carboxamide], at CFTR ΔF508 mutant, the “% Activation” value stood at 119.0% and the response was half-maximal at 28.2 nM (EC50). Besides, on CFTR G551D mutant, the “% Activation” value stood at 73.6% and the response was half-maximal at 1360 nM (EC50).

`Nc1cc(S(=O)(=O)c2ccc(OC(F)(F)F)cc2)cnc1C(=O)NNC(=O)CO` [Compound 287, 3-amino-N′-(hydroxyacetyl)-5-{[4-(trifluoromethoxy)phenyl]sulfonyl}pyridine-2-carbohydrazide]: at CFTR ΔF508 mutant, the “% Activation” value was 83.4% and it took 256 nM to reach a half-maximal effect (EC50). The “% Activation” value on CFTR G551D mutant is on record as 24.3%.

Turning to `Nc1cc(S(=O)(=O)c2ccc(OC(F)(F)F)cc2)cnc1C(=O)N1CC2(CCOC2)C1` [Compound 125, (3-amino-5-{[4-(trifluoromethoxy)phenyl]sulfonyl}pyridin-2-yl)(6-oxa-2-azaspiro[3.4]oct-2-yl)methanone], the “% Activation” value at CFTR ΔF508 mutant stood at 114.0%; on CFTR G551D mutant, 84.1%. Also, the concentration for a half-maximal effect (EC50) on CFTR ΔF508 mutant was 65.6 nM; at CFTR G551D mutant, 2210 nM.

With `CC(C)OCC(O)CNC(=O)c1ncc(S(=O)(=O)c2ccc(C(F)(F)F)cc2F)cc1N` (centres unmarked) [Compound 133, 3-amino-5-{[2-fluoro-4-(trifluoromethyl)phenyl]sulfonyl}-N-[2-hydroxy-3-(propan-2-yloxy)propyl]pyridine-2-carboxamide], on CFTR ΔF508 mutant, the “% Activation” value is reported as 105.9% and the concentration for a half-maximal effect (EC50) is 3.7 nM. Further, on CFTR G551D mutant, the “% Activation” value stood at 84.2% and the EC50 was 253 nM.

With `Nc1cc(S(=O)(=O)c2ccc(OC(F)(F)F)cc2F)cnc1C(=O)NC[C@@H]1CCOC1` [Compound 116, 3-amino-5-{[2-fluoro-4-(trifluoromethoxy)phenyl]sulfonyl}-N-[(3S)-tetrahydrofuran-3-ylmethyl]pyridine-2-carboxamide], the “% Activation” value at CFTR ΔF508 mutant is given as 101.1%; on CFTR G551D mutant it was 50.0%. Also, the concentration giving a half-maximal response (EC50) at CFTR ΔF508 mutant was determined as 27.7 nM; at CFTR G551D mutant, 1400 nM.

Turning to `Nc1cc(S(=O)(=O)c2ccccc2)cnc1C(=O)N1CC(O)(C(F)(F)F)C1` [Compound 255, [3-amino-5-(phenyl sulfonyl)pyridin-2-yl][3-hydroxy-3-(trifluoromethyl)azetidin-1-yl]methanone], the “% Activation” value is reported as 104.2% at CFTR ΔF508 mutant and 41.8% at CFTR G551D mutant. Also, the 50% effective concentration (EC50) on CFTR ΔF508 mutant came to 1.3 nM; at CFTR G551D mutant, 5770 nM.

For `CC(C)(C)OCC(O)CNC(=O)c1ncc(S(=O)(=O)c2ccc(C(F)(F)F)cc2F)cc1N` (centres unmarked) [Compound 224, 3-amino-N-(3-tert-butoxy-2-hydroxypropyl)-5-{[2-fluoro-4-(trifluoromethyl)phenyl]sulfonyl}pyridine-2-carboxamide], at CFTR ΔF508 mutant, the “% Activation” value amounted to 106.0% and the midpoint of the response, the EC50, lay at 8.1 nM. Moreover, at CFTR G551D mutant, the “% Activation” value worked out at 80.6% and the EC50 amounted to 276 nM.

For the molecule `CC(C)(O)C1CN(C(=O)c2ncc(S(=O)(=O)c3ccc(OC(F)(F)F)cc3F)cc2N)C1` [Compound 174, (3-amino-5-{[2-fluoro-4-(trifluoromethoxy)phenyl]sulfonyl}pyridin-2-yl)[3-(2-hydroxypropan-2-yl)azetidin-1-yl]methanone], at CFTR ΔF508 mutant, the “% Activation” value is reported as 118.3% and the midpoint of the response, the EC50, lay at 5.9 nM. For the same molecule, on CFTR G551D mutant, the “% Activation” value came out at 50.3% and the EC50 worked out at 371 nM.

`CC(C)(O)C1CN(C(=O)c2ncc(S(=O)(=O)c3ccc(C(F)(F)F)cc3F)cc2N)C1` [Compound 178, (3-amino-5-{[2-fluoro-4-(trifluoromethyl)phenyl]sulfonyl}pyridin-2-yl)[3-(2-hydroxypropan-2-yl)azetidin-1-yl]methanone]: the “% Activation” value at CFTR ΔF508 mutant worked out at 109.7%; at CFTR G551D mutant, 75.8%. For the same molecule, the 50% effective concentration (EC50) on CFTR ΔF508 mutant is 5.6 nM; on CFTR G551D mutant it was 322 nM.

With `COCCCNC(=O)c1ncc(S(=O)(=O)c2ccc(OC(F)(F)F)cc2)cc1N` [Compound 123, 3-amino-N-(3-methoxypropyl)-5-{[4-(trifluoromethoxy)phenyl]sulfonyl}pyridine-2-carboxamide], on CFTR ΔF508 mutant, the “% Activation” value is 98.5% and the 50% effective concentration (EC50) is 86.2 nM. Besides, on CFTR G551D mutant, the “% Activation” value amounted to 60.5% and the 50% effective concentration (EC50) is 880 nM.

As for `C[C@H]1CCCN1S(=O)(=O)c1cnc(C(=O)N2CC(C(N)=O)C2)c(N)c1` [Compound 271, 1-[(3-amino-5-{[(2S)-2-methylpyrrolidin-1-yl]sulfonyl}pyridin-2-yl)carbonyl]azetidine-3-carboxamide], the results for the “% Activation” value at CFTR ΔF508 mutant and on CFTR G551D mutant were 20.4% and 2.5%, respectively. The values for the concentration giving a half-maximal response (EC50) on CFTR ΔF508 mutant and at CFTR G551D mutant were greater than 2000 nM and greater than 10000 nM, respectively.

Regarding `COCCNC(=O)c1ncc(S(=O)(=O)c2ccc(C(F)(F)F)cc2)cc1N` [Compound 202, 3-amino-N-(2-methoxyethyl)-5-{[4-(trifluoromethyl)phenyl]sulfonyl}pyridine-2-carboxamide], at CFTR ΔF508 mutant, the “% Activation” value amounted to 97.6% and the EC50 worked out at 45.5 nM. On CFTR G551D mutant, the “% Activation” value is given as 45.1% and a half-maximal effect (EC50) was put at 1600 nM.
